{"source": "patent US6372741B1", "about": "“Use of CSAID™ compounds as inhibitors of angiogenesis” (SmithKline Beecham Corporation, priority 1996, dated 2002)", "key": {"[1]": {"tested_on": "granuloma size (dry weight)", "experiment": "Murine air pouch granuloma model: granuloma size by dry weight", "type": "in vivo, mice", "details": "for effect on granuloma size as measured by dry weight: day 6 granuloma", "description": "(§1) The murine airpouch granuloma model of chronic inflammation (Kimura et al., 1985, J. Pharmacobio-Dyn., 8:393-400; Colville-Nash et al.,1995, J. Pharm. and Exp. Ther., 274:1463-1472) whose disclosure is incorporated herein by reference in its entirety, is characterized by inflammatory cell influx, fibrous tissue proliferation and intense angiogenesis. […] In addition, angiogenesis can be accurately quantitated by a vascular casting method.\n(§2) Murine air pouch granuloma model\n(§3) Day-1, mice are anesthetized using Aerrane (isoflurane) gas (5%), after which 3mls of air is injected into the dorsal subcutaneous tissue using a 27 g needle. Mice are allowed to recover.\n(§4) Day 0, mice are again anesthetized using Aerrane, once anesthetized 0.5 ml of Freunds complete adjuvant with 0.1% v/v croton oil is injected into the air pouch formed on Day-1. The animals also begin their dosing regime (number of days dependent upon study) with the animals typically receiving compound in 0.2 ml N,N, Dimethyl Acetoacetamide(DMA)(Sigma, St. Louis, Mo.)/Cremephor El (Sigma, St. Louis, Mo.)/saline (10/10/80) or other appropriate vehicle. The animals are allowed to recover and all subsequent dosing is performed on the animals in the absence of anesthetics.\n(§5) Days 1-5, animals are dosed according to schedule.\nLouis, Mo.)/gelatin (5%)(Sigma, St. Louis, Mo.) solution. […]\nWhen the granuloma is removed it is weighed and then dried for 3 days at 45 C and reweighed. The dried tissue is then digested in 0.9 ml of a 0.05M phosphate buffer pH 7.0 containing 12 U/ml^−1 papain (Sigma, St. Louis, Mo.) and 0.33 g/L^−1 N-acetyl-1-Cysteine (Sigma, St. Louis, Mo.) at 57 C for 3 days. After 3 days digestion the carmine red is solubilized by the addition of 0.1 ml 5 mM NaOH. Samples are centrifuged and then filtered using 0.2 um acrodiscs. The carmine content is then determined against a carmine red standard curve (0.5 to 2 mg/ml) generated in extracted tissue from non carmine treated animals and read at 490 nm. Sample and standard values are determined using DeltaSoft Elisa analysis software (Biometallics Inc., Princeton, N.J.). […]"}, "[2]": {"tested_on": "angiogenesis in granuloma (vascular index)", "experiment": "Murine air pouch granuloma model: vascular index by carmine vascular cast", "type": "in vivo, mice", "details": "for maximum reduction in vascular index: Compound I at 50 mg.kg, bid, i.p., versus vehicle control", "description": "as §1, §2, §3, §4, §5\n[…] Louis, Mo.)/gelatin (5%)(Sigma, St. Louis, Mo.) solution. The animals are then sacrificed by lethal dose of anesthesia and chilled at 4 C for 2 hours prior to the removal of the granuloma tissue.\nWhen the granuloma is removed it is weighed and then dried for 3 days at 45 C and reweighed. The dried tissue is then digested in 0.9 ml of a 0.05M phosphate buffer pH 7.0 containing 12 U/ml^−1 papain (Sigma, St. Louis, Mo.) and 0.33 g/L^−1 N-acetyl-1-Cysteine (Sigma, St. Louis, Mo.) at 57 C for 3 days. After 3 days digestion the carmine red is solubilized by the addition of 0.1 ml 5 mM NaOH. Samples are centrifuged and then filtered using 0.2 um acrodiscs. The carmine content is then determined against a carmine red standard curve (0.5 to 2 mg/ml) generated in extracted tissue from non carmine treated animals and read at 490 nm. Sample and standard values are determined using DeltaSoft Elisa analysis software (Biometallics Inc., Princeton, N.J.). The carmine content is then used to determine the vascular indexes for the various treatments, vascular index being the mg carmine dye/gm dry tissue."}, "IL-1β": {"tested_on": "IL-1β", "experiment": "IL-1β levels in granuloma tissue homogenates by ELISA", "type": "in vivo, mice", "details": "30 mg/kg orally twice a day; peak at day 7", "procedure": "(§6) The levels of these cytokines over the course to granuloma development were measured to determine if the modulation of their expression by the compound correlated with angiogenesis. Cytokine levels were measured by ELISA using homogenates of granuloma tissue. TNF-α levels rose sharply, peaking at day 7 and dropping back down to moderate levels by day 14 (FIG. 2). […] Thus, the ability of the compound to block the sharp rise in TNF-α and IL-1β between days 5 and 7 correlated well with the ability of the compound to prevent the increase in vascular index that occurs over the same time points.\n(§7) Tissue extracts were made by homogenizing granulomas in 0.5 ml 5 mM KH2PO4/0.1 gm wet tissue. IL-1β levels were determined using a Cytoscreen Immunoassay Kit (catalog #KMC 0012) from BioSource International, Camarillo, Calif. TNF-α levels were determined using the following assay: plates were coated with hamster anti-murine TNF-α antibody (Genzyme, Cambridge, Mass.), for 2 hours at 37° C., washed and blocked with a casein-BSA solution (5 gram/L for each) for 1 hour at 37° C., the samples were added and incubated at 4° C. overnight. […] The reaction was terminated with 25 ul 0.1M NaF per well, the O.D. read at 460 nm. Sample values for both ELISAs are calculated using DeltaSoft ELISA analysis software (Biomettalics Inc., Princeton, N.J.)."}, "granuloma vasculature": {"tested_on": "granuloma vasculature", "experiment": "Microscopic evaluation of vasculature in day 6 granulomas", "type": "in vivo", "details": "treated versus untreated mice", "description": "Angiogenesis in the granuloma was microscopically evaluated. The vasculature of day 6 granulomas from both untreated and compound I treated mice was examined. […] In fact, there was a almost no fine capillaries visible, only a few larger vessels."}, "TNF-α": {"tested_on": "TNF-α", "experiment": "TNF-α levels in granuloma tissue homogenates by ELISA", "type": "in vivo, mice", "details": "30 mg/kg orally twice a day; day 7", "procedure": "as §6, §7"}}, "data": [{"molecule": "medroxyprogesterone [reference compound]", "values": [{"measurement": "effect on granuloma size as measured by dry weight", "setting": "[1]", "result": "Neither Compound I nor medroxyprogesterone had an effect"}, {"measurement": "maximum reduction in vascular index", "setting": "[2]; day 6 granuloma", "result": 50, "unit": "%"}]}, {"molecule": "Nc1nccc(-c2c(-c3ccc(F)cc3)ncn2C2CCNCC2)n1", "note": "[Compound I, 1-Piperidine-4-(4-fluorophenyl)-5-(2-aminopyrimidin-4-yl)imidazole]", "values": [{"measurement": "IL-1β expression in granuloma", "setting": "IL-1β", "result": "effectively blocked the increased IL-1β expression"}, {"measurement": "vasculature of granuloma, microscopic evaluation", "setting": "granuloma vasculature", "result": "striking reduction in the vasculature"}, {"measurement": "granuloma size over time course", "setting": "[1]; 30 mg/kg orally twice a day from day 0, days 3, 5, 7 and 14", "result": "unaffected by the compound"}, {"measurement": "effect on granuloma size as measured by dry weight", "setting": "[1]", "result": "Neither Compound I nor medroxyprogesterone had an effect"}, {"measurement": "TNF-α levels in granuloma", "setting": "TNF-α", "result": "greatly reduced TNF-α levels"}, {"measurement": "vascular index (VI) compared to control at day 3", "setting": "[2]; 30 mg/kg orally twice a day from day 0, day 3", "result": "did not cause a significant reduction in VI"}, {"measurement": "vascular index (VI) compared to control at days 5, 7 and 14", "setting": "[2]; 30 mg/kg orally twice a day from day 0, days 5, 7 and 14", "result": "lowered significantly"}, {"measurement": "decrease in the vascular index (in words)", "setting": "[2]; day 6 granuloma, dosing from induction", "result": "significant and dose dependent decrease"}, {"measurement": "maximum reduction in vascular index", "setting": "[2]; day 6 granuloma", "result": 44, "unit": "%"}]}]}
